PubChem BioAssay AID330 (DTP/NCI, 2004)
Where “and” joins values, the source holds several entries; their conditions need not be identical. Equal entries are not always repeated. Toxic doses and inconclusive results are not listed. Rule for the calls: active = survival T/C of 150% or more; inactive = T/C below 125% in these data.

System: P388 leukemia ip, CD2F1 mice, survival T/C
Test: NCI In Vivo Anticancer Drug Screen. Data for tumor model P388 Leukemia (intraperitoneal) in CD2F1 (CDF1) mice
Settings: endpoint: median survival time, higher = longer survival
Outline: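 Mice carrying the transplanted tumor received test compound or vehicle. Survival was recorded in each group, and the value is the treated-group measurement divided by that of the vehicle-treated control group.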

[1] = dose: 60.0 mg/kg/injection, schedule: Q01DX005 (ip), vehicle: saline with Tween-80
[2] = dose: 120.0 mg/kg/injection, schedule: Q01DX005 (ip), vehicle: saline with Tween-80
[3] = dose: 240.0 mg/kg/injection, schedule: Q01DX005 (ip), vehicle: saline with Tween-80
[4] = dose: 12.5 mg/kg/injection, schedule: Q01DX009 (ip), vehicle: saline
[5] = dose: 25.0 mg/kg/injection, schedule: Q01DX009 (ip), vehicle: saline
[6] = dose: 50.0 mg/kg/injection, schedule: Q01DX009 (ip), vehicle: saline
[7] = dose: 50.0 mg/kg/injection, schedule: Q01DX005 (ip), vehicle: Klucel (hydroxypropylcellulose) (HPC)
[8] = dose: 100.0 mg/kg/injection, schedule: Q01DX005 (ip), vehicle: Klucel (hydroxypropylcellulose) (HPC)
[9] = dose: 200.0 mg/kg/injection, schedule: Q01DX005 (ip), vehicle: Klucel (hydroxypropylcellulose) (HPC)
[10] = dose: 100.0 mg/kg/injection, schedule: Q01DX009 (ip), vehicle: saline with Tween-80
[11] = dose: 100.0 mg/kg/injection, schedule: Q04DX003 (ip), vehicle: saline with Tween-80
[12] = dose: 200.0 mg/kg/injection, schedule: Q01DX009 (ip), vehicle: saline with Tween-80
[13] = dose: 200.0 mg/kg/injection, schedule: Q04DX003 (ip), vehicle: saline with Tween-80
[14] = dose: 400.0 mg/kg/injection, schedule: Q04DX003 (ip), vehicle: saline with Tween-80
[15] = dose: 50.0 mg/kg/injection, schedule: Q01DX009 (ip), vehicle: saline with Tween-80
[16] = dose: 60.0 mg/kg/injection, schedule: Q01DX005 (ip), vehicle: Klucel (hydroxypropylcellulose) (HPC)
[17] = dose: 120.0 mg/kg/injection, schedule: Q01DX005 (ip), vehicle: Klucel (hydroxypropylcellulose) (HPC)
[18] = dose: 240.0 mg/kg/injection, schedule: Q01DX005 (ip), vehicle: Klucel (hydroxypropylcellulose) (HPC)

Measured: T/C

CC1OC(OC2C(Oc3ccc4c(=O)c(-c5ccc(O)c(O)c5O)coc4c3)OC(CO)C(O)C2O)C(O)C(O)C1O (centres undefined)
inactive: [1] 103 % of control | [2] 101 % of control | [3] 103 % of control

c1ccc2c(CC3=NCCN3)noc2c1
inactive: [4] 98 % of control | [5] 105 % of control | [6] 103 % of control and 107 % of control

CCOC(=O)C(=C(SC)SC)[n+]1ccc(C)cc1
inactive: dose: 12.5 mg/kg/injection, schedule: Q04DX002 (ip), vehicle: saline with Tween-80 104 % of control

CCN(CC)[Si](C)(C)N(CC)CC
inactive: dose: 30.0 mg/kg/injection, schedule: Q01DX005 (ip), vehicle: saline with Tween-80 100 % of control | [1] 100 % of control | [2] 104 % of control

O=C(/C=C/c1ccc2c(c1)OCO2)c1ccccc(=O)c1O
inactive: dose: 25.0 mg/kg/injection, schedule: Q01DX005 (ip), vehicle: Klucel (hydroxypropylcellulose) (HPC) 95 % of control | [7] 100 % of control | [8] 101 % of control | [9] 118 % of control

Cc1ccccc1[B-]12OCC[N+]1(CNC(=O)C1=C(O)C3(O)C(=O)C4=C(O)c5c(O)cccc5C(C)(O)C4CC3C(N(C)C)C1=O)CCO2 (centres undefined)
inactive: [7] 110 % of control | [8] 115 % of control | [9] 108 % of control

CC(=O)O.CC(=O)O.CC(=O)O.CC(=O)O.[Cu].[Cu]
inactive: dose: 6.25 mg/kg/injection, schedule: Q04DX002 (ip), vehicle: Klucel (hydroxypropylcellulose) (HPC) 91 % of control | dose: 12.5 mg/kg/injection, schedule: Q04DX002 (ip), vehicle: Klucel (hydroxypropylcellulose) (HPC) 100 % of control

O=[N+]([O-])c1cnc(/C=[N+](\[O-])CCO)n1CCO
inactive: [6] 99 % of control | dose: 100.0 mg/kg/injection, schedule: Q01DX009 (ip), vehicle: saline 90 % of control | dose: 200.0 mg/kg/injection, schedule: Q01DX009 (ip), vehicle: saline 106 % of control

C=C1C(=O)OC2/C=C(\C)CC/C=C(/C=O)C(OC(=O)C(C)C)C(O)C12 (centres undefined)
inactive: dose: 8.0 mg/kg/injection, schedule: Q01DX009 (ip), vehicle: saline + alcohol 97 % of control

CC(=O)Oc1c(C)c(OC(C)=O)c2c(c1C(C)=O)OC1CC(=O)C(C(C)=O)=C(O)C21C (centres undefined)
inactive: dose: 6.25 mg/kg/injection, schedule: Q01DX009 (ip), vehicle: gum acacia 101 % of control and 97 % of control | dose: 12.5 mg/kg/injection, schedule: Q01DX009 (ip), vehicle: gum acacia 100 % of control and 102 % of control | dose: 25.0 mg/kg/injection, schedule: Q01DX009 (ip), vehicle: gum acacia 102 % of control | dose: 50.0 mg/kg/injection, schedule: Q01DX009 (ip), vehicle: gum acacia 101 % of control and 104 % of control | dose: 100.0 mg/kg/injection, schedule: Q01DX009 (ip), vehicle: gum acacia 94 % of control

O=c1oc(-c2ccccc2)nc2c1CCCS2
inactive: [7] 100 % of control | [8] 99 % of control and 103 % of control | [9] 103 % of control and 89 % of control

CN(C)[C@@H]1C(=O)C(C(=O)NCc2nc3[nH]cnc(=S)c3[nH]2)=C(O)[C@@]2(O)C(=O)C3=C(O)c4c(O)cccc4[C@@](C)(O)[C@H]3C[C@@H]12
inactive: [10] 100 % of control | [11] 95 % of control | [12] 100 % of control | [13] 95 % of control | dose: 400.0 mg/kg/injection, schedule: Q01DX009 (ip), vehicle: saline with Tween-80 110 % of control | [14] 100 % of control

Cc1cc2c(oc(=O)c3cc(C)sc32)s1
inactive: [7] 99 % of control | [8] 103 % of control | [9] 97 % of control

O=C1C[N+]2(CCCCC2)c2ccc(Cl)cc2N1
inactive: dose: 6.25 mg/kg/injection, schedule: Q01DX009 (ip), vehicle: saline 104 % of control | dose: 6.25 mg/kg/injection, schedule: Q04DX003 (ip), vehicle: saline 100 % of control | [4] 109 % of control | dose: 12.5 mg/kg/injection, schedule: Q04DX003 (ip), vehicle: saline 104 % of control | [5] 104 % of control | dose: 25.0 mg/kg/injection, schedule: Q04DX003 (ip), vehicle: saline 100 % of control

Cc1[nH]cc2c1C(c1ccccc1F)=NCC(=O)N2
inactive: [11] 101 % of control | [13] 100 % of control | [14] 101 % of control

O=C(/C=C\N(c1ccccc1)c1ccccc1)c1ccccc1
inactive: [15] 90 % of control | [10] 93 % of control | [12] 94 % of control

CN1CCN(Cc2oc(CO)cc(=O)c2O)CC1
inactive: dose: 60.0 mg/kg/injection, schedule: Q01DX005 (ip), vehicle: saline 103 % of control | dose: 120.0 mg/kg/injection, schedule: Q01DX005 (ip), vehicle: saline 92 % of control | dose: 240.0 mg/kg/injection, schedule: Q01DX005 (ip), vehicle: saline 104 % of control

CCOC(C)(c1ccc(Cl)cc1)C1CCNCC1 (centres undefined)
inactive: [15] 101 % of control | [10] 119 % of control

CC1(C)CC(=O)C2C(C1)OC1CC(C)(C)CC(=O)C1C2c1ccc2c(c1)OCO2 (centres undefined)
inactive: [1] 104 % of control | [2] 100 % of control | [3] 97 % of control

CCOC1=C(C#N)C(=O)NC2OC(CO)C(O)C2O1 (centres undefined)
inactive: [16] 104 % of control | [17] 104 % of control | [18] 106 % of control

COc1ccc(/C=C/C(CCN(C)C)=N/NC(=S)Nc2ccc(Cl)cc2)cc1
inactive: dose: 100.0 mg/kg/injection, schedule: Q01DX001 (ip), vehicle: saline with Tween-80 89 % of control | dose: 200.0 mg/kg/injection, schedule: Q01DX001 (ip), vehicle: saline with Tween-80 90 % of control | dose: 400.0 mg/kg/injection, schedule: Q01DX001 (ip), vehicle: saline with Tween-80 90 % of control

Cc1coc2c1C(O)C1(C)C(C)CCC(O)C1C2=O (centres undefined)
inactive: dose: 7.5 mg/kg/injection, schedule: Q01DX009 (ip), vehicle: saline with Tween-80 101 % of control | dose: 15.0 mg/kg/injection, schedule: Q01DX009 (ip), vehicle: saline with Tween-80 101 % of control | dose: 30.0 mg/kg/injection, schedule: Q01DX009 (ip), vehicle: saline with Tween-80 101 % of control | dose: 60.0 mg/kg/injection, schedule: Q01DX009 (ip), vehicle: saline with Tween-80 102 % of control

COC(=O)c1cc(-c2ccccc2)c2c(=O)n(-c3ccccc3)[nH]c2n1
inactive: [1] 99 % of control | [2] 100 % of control | [3] 96 % of control

CC(C)C(N)C(=O)O (centres undefined)
inactive: dose: 50.0 mg/kg/injection, schedule: Q01DX009 (ip), vehicle: Klucel (hydroxypropylcellulose) (HPC) 100 % of control | dose: 100.0 mg/kg/injection, schedule: Q01DX009 (ip), vehicle: Klucel (hydroxypropylcellulose) (HPC) 100 % of control | dose: 200.0 mg/kg/injection, schedule: Q01DX009 (ip), vehicle: Klucel (hydroxypropylcellulose) (HPC) 91 % of control

Cc1ccc(OC(=O)c2ccc3ccccc3n2)cc1
inactive: dose: 100.0 mg/kg/injection, schedule: Q04DX002 (ip), vehicle: saline with Tween-80 101 % of control | dose: 200.0 mg/kg/injection, schedule: Q04DX002 (ip), vehicle: saline with Tween-80 94 % of control | dose: 400.0 mg/kg/injection, schedule: Q04DX002 (ip), vehicle: saline with Tween-80 94 % of control

Cn1cnc([N+](=O)[O-])c1S(N)(=O)=O
inactive: [10] 88 % of control | [12] 123 % of control

COC(=O)c1[nH]c(=O)c(C#N)c(C(=O)OC)c1C(=O)c1ccc(Cl)c(Cl)c1
inactive: [16] 100 % of control | [17] 107 % of control | [18] 100 % of control

COc1ccc(CS(=O)(=O)c2cnc(N/N=C/c3ccc([N+](=O)[O-])o3)nc2N)c(OC)c1
inactive: dose: 100.0 mg/kg/injection, schedule: Q01DX001 (ip), vehicle: saline 94 % of control | dose: 200.0 mg/kg/injection, schedule: Q01DX001 (ip), vehicle: saline 94 % of control | dose: 400.0 mg/kg/injection, schedule: Q01DX001 (ip), vehicle: saline 92 % of control

CCN(CC)CCN(CC)c1ccccc1
inactive: dose: 50.0 mg/kg/injection, schedule: Q01DX005 (ip), vehicle: saline with Tween-80 105 % of control | dose: 100.0 mg/kg/injection, schedule: Q01DX005 (ip), vehicle: saline with Tween-80 102 % of control
